Marks after values point to notes of the source that are not given here. Starred links: 1 amine or outer side, 2 acyl side, 3 side chain; linkers in the order of their positions; H or OH if unused. Non-standard residues stand in square brackets, D forms with d. Residues, ends and D or L forms follow the SMILES beside them. X1 = CCC(N[*:1])C(C)C(=O)O[C@H](C(=O)[*:2])[C@@H](C)CC; X2 = C[C@H](N[*:1])C(=O)C(C)(C)C(=O)[*:2]; NMeY = CN[C@@H](Cc1ccc(O)cc1)C(=O)O; NMeI = CC[C@H](C)[C@H](NC)C(=O)O; NMeV = CN[C@H](C(=O)O)C(C)C
What was measured:
Assay in all cases: In vitro agar-diffusion test
Type in all cases: cell-based
Pythium ultimum X751 = system: Pythium ultimum X751
Protocol: (§1) The activity of scytophycin compounds against pathogenic fungi in standard in vitro agar-diffusion tests, using ¼"(6mm) discs holding ~30 µL of test solution, is illustrated in Tables 6-12.

Rhizoctonia solani X767 = system: Rhizoctonia solani X767; set-up: key: - = not active
Protocol: as §1

[1] = system: Sclerotina homoeocarpa X768; set-up: key: - = not active
Protocol: as §1

[2] = system: Saccharomyces pastorianus X52
Protocol: as §1

Candida albicans X657 = system: Candida albicans X657
Protocol: as §1

Neurospora crassa X846 = system: Neurospora crassa X846
Protocol: as §1

Compound: CCC1NC(=O)[C@H](C)NC(=O)C(C)(C)C(=O)[C@H](C)NC(=O)[C@H](Cc2ccc(OC)cc2)N(C)C(=O)[C@H](C(C)C)N(C)C(=O)CNC(=O)[C@H]([C@@H](C)CC)N(C)C(=O)CNC(=O)[C@H]([C@@H](C)CC)OC(=O)C1C (some centres unmarked) [Majusculamide C, reference compound] (cyclo(A[X1]G[NMeI]G[NMeV][NMeY](Me)[X2]))
- Size of Zone of Inhibition (mm) (Pythium ultimum X751; Table 10, 0.01 mg/mL): 10^a mm
- Size of Zone of Inhibition (mm) (Pythium ultimum X751; Table 10, 0.1 mg/mL): 18 mm
- Size of Zone of Inhibition (mm) (Pythium ultimum X751; Table 10, 1.0 mg/mL): >30 mm
- Size of Zone of Inhibition (mm) (Rhizoctonia solani X767; Table 10, 0.01 mg/mL): -
- Size of Zone of Inhibition (mm) (Rhizoctonia solani X767; Table 10, 0.1 mg/mL): -
- Size of Zone of Inhibition (mm) (Rhizoctonia solani X767; Table 10, 1.0 mg/mL): 20^a mm
- Size of Zone of Inhibition (mm) ([1]; Table 10, 0.01 mg/mL): -
- Size of Zone of Inhibition (mm) ([1]; Table 10, 0.1 mg/mL): -
- Size of Zone of Inhibition (mm) ([1]; Table 10, 1.0 mg/mL): 17 mm

Compound: Scytophycin C
- Size of Zone of Inhibition (mm) ([2]; Table 9, 1 mg/mL): 17 mm
- Size of Zone of Inhibition (mm) (Candida albicans X657; Table 9, 1 mg/mL): 22 mm
- Size of Zone of Inhibition (mm) (Neurospora crassa X846; Table 9, 1 mg/mL): 30 mm
- Size of Zone of Inhibition (mm) (Pythium ultimum X751; Table 12, 0.5 mg/mL): 12^a mm
- Size of Zone of Inhibition (mm) (Rhizoctonia solani X767; Table 12, 0.5 mg/mL): 30 mm
- Size of Zone of Inhibition (mm) ([1]; Table 12, 0.5 mg/mL): 32 mm

Compound: Scytophycin E
- Size of Zone of Inhibition (mm) ([2]; Table 8, 0.33 mg/mL): 18 mm
- Size of Zone of Inhibition (mm) ([2]; Table 8, 1 mg/mL): 23 mm
- Size of Zone of Inhibition (mm) (Candida albicans X657; Table 8, 0.33 mg/mL): 22 mm
- Size of Zone of Inhibition (mm) (Candida albicans X657; Table 8, 1 mg/mL): 21 mm
- Size of Zone of Inhibition (mm) (Neurospora crassa X846; Table 8, 0.33 mg/mL): 26 mm
- Size of Zone of Inhibition (mm) (Neurospora crassa X846; Table 8, 1 mg/mL): 36 mm
- Size of Zone of Inhibition (mm) (Pythium ultimum X751; Table 11, 0.33 mg/mL): 30 mm
- Size of Zone of Inhibition (mm) (Pythium ultimum X751; Table 11, 1.0 mg/mL): 40 mm
- Size of Zone of Inhibition (mm) (Rhizoctonia solani X767; Table 11, 0.33 mg/mL): 33 mm
- Size of Zone of Inhibition (mm) (Rhizoctonia solani X767; Table 11, 0.33 mg/mL, second value of the cell, after the zone marked overgrowth): 15 mm
- Size of Zone of Inhibition (mm) (Rhizoctonia solani X767; Table 11, 1.0 mg/mL): 46 mm
- Size of Zone of Inhibition (mm) (Rhizoctonia solani X767; Table 11, 1.0 mg/mL, second value of the cell, after the zone marked overgrowth): 25 mm
- Size of Zone of Inhibition (mm) ([1]; Table 11, 0.33 mg/mL): 33 mm
- Size of Zone of Inhibition (mm) ([1]; Table 11, 1.0 mg/mL): 35 mm

Source: EP0205308B1, “Scytophycins” (Moore, Richard Elliott, priority 1985, dated 1986)
